Measurements taken from US11174267B2, “Spiroindolinones and therapeutic uses thereof” (The Regents of the University of California, priority 2015, dated 2021).
Read-outs that look alike come from different tables or passages of the source.

What was measured:
[1] = test system: Resistant Candida albicans (clinical isolate-45); experiment: EC50 in combination with fluconazole, resistant C. albicans; assay type: cell-based; details: C. albicans clinical isolate-45; [fluconazole] = 64 μg/mL; read-out: EC50 Resistant Candida albicans
[2] = test system: susceptible strain (HLY4123) of C. albicans; experiment: Dose-response with fluconazole (0.25 μg/mL) against susceptible strain; assay type: cell-based, Candida albicans
Protocol: (§1) C. albicans was grown in SC medium overnight and then diluted to an effective OD600 of 0.0625. Serial ten-fold dilutions of the test compounds (0.15-1500 μM) were prepared in DMSO in 1.5 mL Eppendorf tubes. […] The plates were incubated in a rotary shaker/incubator at 30° C. for 16 h. The contents of each well was resuspended with a micropipettor and a 20 μL aliquot was added to a polystyrene cuvette and diluted with 680 μL of deionized water. The suspension was triturated again immediately before measuring the absorbance at 600 nm (OD600) for cell densities. EC50 values were determined by fitting to the Hill equation using the Excel-based tool ED50PLUS v1.0 (Mario H. Vargas) or using Mathematica. Similar procedures were used for Candida glabrata and Cryptococcus neoformans.

Cryptococcus neoformans = experiment: EC50 in combination with fluconazole, Cryptococcus neoformans; assay type: cell-based; details: [fluconazole] = 4 μg/mL
From the text: (§2) Strains and growth condition. The wild-type Candida albicans strains used were SC5314 and CaSS1. Cdr1 heterozygous were from Merck Sharp & Dohme Corp. Double Barcoded (DBC) library of heterozygous Candida albicans mutants (version 2013A). Cdr1 deficient mutant was obtained by counterselection of the GRACE library strain on 5-Fluoroorotic Acid (5-FOA) containing plate. Clinical isolated resistant C. albicans were from Dr. David Rogers. Cryptococcus neoformans var. grubii H99 (ATCC 208821) and Candida glabrata BG2, a fluconazole-resistant clinical isolate, were used. Yeast strains were cultured at 30° C. in synthetic complete (SC) medium containing 2% glucose.
as §1
(§3) Because fungal drug-efflux ABC transporters are conserved, Cdr1 inhibitors that target the conserved regions of the pumps are expected to inhibit the drug efflux pumps in all fungi including C. albicans. […] Therefore, those spiroindolinones are candidates for combination antifungal therapy with azoles against invasive infections of not only C. albicans, but also other pathogenic fungi.

NIH 3T3 cells = experiment: Cytotoxicity, LDH assay; assay type: cell-based; details: concentrations up to 1.5 mM
Protocol: The cytotoxicity of spiroindoline Compounds 1, 8 and 25 were tested against NIH 3T3 cells at concentrations up to 1.5 mM (FIG. 13) using an LDH assay.

Candida glabrata = experiment: EC50 in combination with fluconazole, Candida glabrata; assay type: cell-based; details: [fluconazole] = 128 μg/mL
From the text: as §2, §1, §3

[3] = test system: resistant clinical isolates of C. albicans; experiment: Screen of resistant clinical isolates, single dose, broth microdilution (growth OD600); assay type: cell-based, Candida albicans; details: fluconazole 64 μg/mL alone, 16 h in SC at 30° C.
From the text: (Flowers, S. A., et al. Eukaryotic Cell 2012, 11, 1289-1299.) The strains grow at dramatically different rates.

[4] = biological target: C. albicans sterol α-demethylase (a.k.a. Erg11 or CYP51) (Candida albicans, UniProt P10613); experiment: Literature: inhibition of sterol α-demethylase by fluconazole; assay type: biochemical; details: ten times the Ki, >90% inhibition expected
Sequence of C. albicans sterol α-demethylase (a.k.a. Erg11 or CYP51) (P10613 whole entry): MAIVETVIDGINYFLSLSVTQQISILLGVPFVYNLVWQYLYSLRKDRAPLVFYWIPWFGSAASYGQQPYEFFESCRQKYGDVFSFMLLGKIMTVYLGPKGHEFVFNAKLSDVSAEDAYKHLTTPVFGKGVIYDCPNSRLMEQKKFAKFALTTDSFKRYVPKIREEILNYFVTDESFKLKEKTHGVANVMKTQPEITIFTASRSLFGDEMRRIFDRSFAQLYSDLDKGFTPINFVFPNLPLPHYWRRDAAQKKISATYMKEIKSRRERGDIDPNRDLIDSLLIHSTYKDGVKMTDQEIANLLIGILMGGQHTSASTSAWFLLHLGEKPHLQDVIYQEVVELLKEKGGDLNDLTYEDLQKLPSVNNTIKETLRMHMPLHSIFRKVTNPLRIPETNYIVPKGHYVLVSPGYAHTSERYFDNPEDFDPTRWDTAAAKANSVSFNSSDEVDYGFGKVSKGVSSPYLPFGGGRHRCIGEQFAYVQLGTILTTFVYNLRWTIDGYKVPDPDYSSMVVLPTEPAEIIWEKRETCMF

[5] = test system: resistant clinical isolates of C. albicans; design: unit not given beside the values; details: cited from earlier work
[6] = test system: C. albicans strain HLY4123 and clinical isolates 26 and 45; experiment: Checkerboard assay (MIC90, FIC index); assay type: cell-based, Candida albicans; details: Candida albicans
Protocol: Checkerboard assays were carried out using four 24-well plates. The results on each plate were normalized by duplication of one row and one column with a row and column on another plate. C. albicans was grown in SC medium overnight and then diluted to an effective OD600 of 0.0625. Serial ten-fold dilutions of the test compounds (150 mM) were prepared in DMSO in 1.5 mL Eppendorf tubes. […] Concentrations of compound in rows 1-11 varied from 300 μM to 0.0003 nM; the last row 12 contained no compound. […] The plates were incubated in a rotary shaker/incubator at 30° C. for 16 h. The contents of each well was resuspended with a micropipettor and a 20 μL aliquot was added to a polystyrene cuvette and diluted with 680 μL of deionized water. The suspension was triturated again immediately before measuring the absorbance at 600 nm. The MIC90 values were determined as the lowest concentrations of the drugs (alone or in combination) that inhibited fungal growth by 90% compared with that of the drug-free wells.
In all of the strains tested, the FIC index was below 0.5, fitting the classical definition of synergy.

[7] = in the presence of fluconazole; cited from earlier work
[8] = Candida albicans, with fluconazole 0.25 μg/mL, strain HLY4123
[9] = with fluconazole 0.25 μg/mL, strain HLY4123

## Cc1c(Cl)ccc2c1NC(=O)[C@]21N[C@H](Cc2ccccc2)[C@@H]2C(=O)N(c3ccccc3)C(=O)[C@@H]21 (racemic) [Compound 8]
[1]
  EC50: 0.49 µM
[2]; [8]
  EC50: 0.001 µM
Cryptococcus neoformans
  EC50: 11.3 µM
NIH 3T3 cells
  cytotoxicity: weak to negligible cytotoxicity
Candida glabrata
  EC50: 1.72 µM

## Cc1c(Cl)ccc2c1NC(=O)[C@@]21[C@H]2C(=O)N(c3ccccc3)C(=O)[C@H]2[C@H]2CN(C(=O)OC(C)(C)C)CCN21 (racemic) [Compound 9, (±)-tert-Butyl (3R,3a′R,3b'S,9a'S)-6-chloro-7-methyl-1′,2,3′-trioxo-2′-phenyl-2′,3′,3a′,3b′,4′,6′,7′,9a′-octahydrospiro[indoline-3,9′-pyrrolo[3′,4′:3,4]pyrrolo[1,2-a]pyrazine]-5′(1′H)-carboxylate]
[2]; [8]
  EC50: 0.0056 µM
[2]; ratio of EC50s, diastereomers
  times more potent than compound 33: over 35
[2]; [9]
  EC50: 0.006 to 0.008 µM

## Cc1c(Cl)ccc2c1NC(=O)[C@@]21[C@H]2C(=O)N(c3ccccc3)C(=O)[C@H]2[C@H]2CNCCN21 [Compound 20]
[2]; [9]
  activity (in words): low activity

## OC(Cn1cncn1)(Cn1cncn1)c1ccc(F)cc1F [fluconazole, reference compound]
[3]; clinical isolate 15
  Growth (OD600) +Fluc: 5.58
[3]; clinical isolate 16
  Growth (OD600) +Fluc: 0.64
[3]; clinical isolate 17
  Growth (OD600) +Fluc: 3.96
[3]; clinical isolate 21
  Growth (OD600) +Fluc: 6.46
[3]; clinical isolate 22
  Growth (OD600) +Fluc: 3.27
[3]; clinical isolate 23
  Growth (OD600) +Fluc: 6.77
[3]; clinical isolate 25
  Growth (OD600) +Fluc: 2.90
[3]; clinical isolate 26
  Growth (OD600) +Fluc: 6.44
[3]; clinical isolate 30
  Growth (OD600) +Fluc: 9.40
[3]; clinical isolate 33
  Growth (OD600) +Fluc: 7.38
[3]; clinical isolate 36
  Growth (OD600) +Fluc: 5.08
[3]; clinical isolate 41
  Growth (OD600) +Fluc: 9.47
[3]; clinical isolate 45
  Growth (OD600) +Fluc: 9.17
[3]; clinical isolate 49
  Growth (OD600) +Fluc: 11.31
[4]
  theoretical limit for fluconazole potency: around 0.3 μM
[5]; clinical isolate 15
  MICFlc: 16
[5]; clinical isolate 16
  MICFlc: 16
[5]; clinical isolate 17
  MICFlc: 32
[5]; clinical isolate 21
  MICFlc: 32
[5]; clinical isolate 22
  MICFlc: 32
[5]; clinical isolate 23
  MICFlc: 32
[5]; clinical isolate 25
  MICFlc: 32
[5]; clinical isolate 26
  MICFlc: 32
[5]; clinical isolate 30
  MICFlc: 64
[5]; clinical isolate 33
  MICFlc: 64
[5]; clinical isolate 36
  MICFlc: 64
[5]; clinical isolate 41
  MICFlc: 128
[5]; clinical isolate 45
  MICFlc: 128
[6]; clinical isolate 26, fluconazole alone, read-out: MICFlc (MIC90)
  MIC90: 836 µM
[6]; clinical isolate 26, with Compound 25, read-out: MICFlc (+cpd) (MIC90)
  MIC90: 105 µM
[6]; clinical isolate 45, fluconazole alone, read-out: MICFlc (MIC90)
  MIC90: 836 µM
[6]; clinical isolate 45, with Compound 25, read-out: MICFlc (+cpd) (MIC90)
  MIC90: 105 µM
[6]; read-out: MIC90 for fluconazole, susceptible strain, Compound 25 present at 300 nM
  MIC90: 0.125 µM
[6]; strain HLY4123, fluconazole alone, read-out: MICFlc (MIC90)
  MIC90: 0.5 µM
[6]; strain HLY4123, with Compound 25, read-out: MICFlc (+cpd) (MIC90)
  MIC90: 0.125 µM

## CN[C@H]1CC[C@@H](c2ccc(Cl)c(Cl)c2)c2ccccc21 [sertraline]
[7]
  MIC: ≥ 0.5 mg/L
